Source: ChEMBL document CHEMBL1201862, “PubChem BioAssay data set” (2004)
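Five compound concentrations were applied to cells in 96-well plates for 48 hours; endpoints were derived by simple linear interpolation of the resulting dose-response curve. Abbreviation: GI50, concentration required for 50% inhibition of growth.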 The source made the active and inactive calls. No stated cut-off is given here; in the data, active = GI50 up to about 1.1 µM and inactive = higher.

How the values were obtained:
Test in all cases: NCI tumour cell line growth inhibition, 48 h
[1] = test system: 786-0
[2] = test system: A498
[3] = test system: A549
[4] = test system: ACHN
[5] = test system: BT-549
[6] = test system: CAKI-1
[7] = test system: CCRF-CEM
[8] = test system: COLO 205
[9] = test system: DU-145
[10] = test system: EKVX
[11] = test system: HCC 2998
[12] = test system: HCT-116
[13] = test system: HCT-15
[14] = test system: HL-60
[15] = test system: HOP-62
[16] = test system: HOP-92
[17] = test system: HT-29
[18] = test system: Hs-578T
[19] = test system: IGROV-1
[20] = test system: K562
[21] = test system: KM12
[22] = test system: LOX IMVI
[23] = test system: M14
[24] = test system: MCF7
[25] = test system: MDA-MB-231
[26] = test system: MDA-MB-435
[27] = test system: MDA-N
[28] = test system: MOLT-4
[29] = test system: Malme-3M
[30] = test system: NCI-H226
[31] = test system: NCI-H23
[32] = test system: NCI-H460
[33] = test system: NCI-H522
[34] = test system: NCI/ADR-RES
[35] = test system: OVCAR-3
[36] = test system: OVCAR-4
[37] = test system: OVCAR-5
[38] = test system: OVCAR-8
[39] = test system: PC-3
[40] = test system: RPMI-8226
[41] = test system: RXF 393
[42] = test system: SF-268
[43] = test system: SF-295
[44] = test system: SF-539
[45] = test system: SK-MEL-28
[46] = test system: SK-MEL-2
[47] = test system: SK-MEL-5
[48] = test system: SK-OV-3
[49] = test system: SN12C
[50] = test system: SNB-19
[51] = test system: SNB-75
[52] = test system: SR
[53] = test system: SW-620
[54] = test system: T47D
[55] = test system: TK-10
[56] = test system: U-251
[57] = test system: UACC-257
[58] = test system: UACC-62

COc1nc(N)c(N=O)c(OCc2ccccc2)n1
GI50 [1]: 5.21 µM (inactive) | GI50 [2]: > 10 µM (inactive) | GI50 [3]: > 10 µM (inactive) | GI50 [4]: 7.35 µM (inactive) | GI50 [5]: 4.01 µM (inactive) | GI50 [6]: 3.51 µM (inactive) | GI50 [7]: 2.31 µM (inactive) | GI50 [8]: 1.09 µM (active) | GI50 [9]: > 10 µM (inactive) | GI50 [10]: 2.64 µM (inactive) | GI50 [11]: > 10 µM (inactive) | GI50 [12]: 9.71 µM (inactive) | GI50 [13]: 2.5 µM | GI50 [14]: 4.84 µM (inactive) | GI50 [15]: > 10 µM (inactive) | GI50 [16]: > 10 µM (inactive) | GI50 [17]: 3.38 µM (inactive) | GI50 [18]: > 10 µM (inactive) | GI50 [19]: > 10 µM (inactive) | GI50 [20]: > 10 µM (inactive) | GI50 [21]: > 10 µM (inactive) | GI50 [22]: 4.19 µM (inactive) | GI50 [23]: 4.84 µM (inactive) | GI50 [24]: 5.04 µM (inactive) | GI50 [25]: 3.32 µM (inactive) | GI50 [26]: 6.31 µM (inactive) | GI50 [27]: 5.36 µM (inactive) | GI50 [28]: 8.39 µM (inactive) | GI50 [29]: 3.12 µM (inactive) | GI50 [30]: > 10 µM (inactive) | GI50 [31]: > 10 µM (inactive) | GI50 [32]: 9.29 µM (inactive) | GI50 [33]: 1.71 µM (inactive) | GI50 [34]: 6.55 µM (inactive) | GI50 [35]: 4.01 µM (inactive) | GI50 [36]: 3.61 µM (inactive) | GI50 [37]: > 10 µM (inactive) | GI50 [38]: 3.52 µM (inactive) | GI50 [39]: > 10 µM (inactive) | GI50 [40]: > 10 µM (inactive) | GI50 [41]: 5.15 µM (inactive) | GI50 [42]: > 10 µM (inactive) | GI50 [43]: > 10 µM (inactive) | GI50 [44]: 3.3 µM (inactive) | GI50 [45]: > 10 µM (inactive) | GI50 [46]: > 10 µM (inactive) | GI50 [47]: 7.89 µM (inactive) | GI50 [48]: > 10 µM (inactive) | GI50 [49]: 7.59 µM (inactive) | GI50 [50]: > 10 µM (inactive) | GI50 [51]: > 10 µM (inactive) | GI50 [52]: 4.84 µM (inactive) | GI50 [53]: 1.61 µM (inactive) | GI50 [54]: 2.76 µM (inactive) | GI50 [55]: > 10 µM (inactive) | GI50 [56]: > 10 µM (inactive) | GI50 [57]: > 10 µM (inactive) | GI50 [58]: 5.89 µM (inactive)
